Where only a bound is given, the exact number is not on record here.

Holding throughout (type): cell-based
One assay concerns the target BRD4 (Homo sapiens, UniProt O60885). Nature of the assay: Rescue of CS-JQ1-induced BRD4 degradation by co-treatment. The conditions noted are these: CS-JQ1 250 nM; BTZ, MLN7243, MLN4924 1 μM, JQ1 10 μM; MCF7 and MDA-MB-231 cells.
The next assay concerns MDA. Nature of the assay: Cell viability, breast cancer cells MDA.
In the next assay the test system is MDA-BR. Nature of the assay: Cell viability, breast cancer cells MDA-BR.
In a further assay the test system is BT474. Nature of the assay: Cell viability, breast cancer cells BT474. The conditions noted are these: Homo sapiens, BT-474.
The subject of the next assay is SJGBM2. Nature of the assay: Cell viability, pediatric glioma SJGBM2.
In assay [1] the test system is DIPG XIII. The assay can be described thus: Cell viability, pediatric glioma DIPG XIII.
For a further assay, the system named is DIPG VI. The assay can be described thus: Cell viability, pediatric glioma DIPG VI.
In the next assay the test system is DIPG IV. Nature of the assay: Cell viability, pediatric glioma DIPG IV.
For the next assay, the system named is DIPG 50. Nature of the assay: Cell viability, pediatric glioma DIPG 50.
Another assay deals with PHC (mice). The assay can be described thus: Cell viability, pediatric glioma PHC (mice). The note with it: Mus musculus.
A further assay concerns PKC (mice). The assay can be described thus: Cell viability, pediatric glioma PKC (mice). The note with it: Mus musculus.
A further assay deals with XFM (mice). Nature of the assay: Cell viability, pediatric glioma XFM (mice). The note with it: Mus musculus.
In assay [2] the test system is MES83. Nature of the assay: Cell viability, adult glioma MES83.
The next assay relates to MES236. The assay can be described thus: Cell viability, adult glioma MES236.
The test system of the next assay is MGG29. The assay can be described thus: Cell viability, adult glioma MGG29.
The subject of another assay is PN84. Nature of the assay: Cell viability, adult glioma PN84.
The subject of the next assay is U87. Nature of the assay: Cell viability, adult glioma U87. The note with it: Homo sapiens, U-87 MG.
For the next assay, the system named is MGG23. The assay can be described thus: Cell viability, adult glioma MGG23.
In a further assay the test system is M005 (mice). Nature of the assay: Cell viability, adult glioma M005 (mice). The note with it: Mus musculus.
In assay [3] the test system is DIPG XIII. The assay can be described thus: Cell viability, CS and JQ1 combination, DIPG XIII.
The test system of assay [4] is MES83. The assay can be described thus: Cell viability, CS and JQ1 combination, MES83.

For orientation: IC50 means the concentration that gives 50% inhibition. In the case of `Cc1sc2c(c1C)C(c1ccc(Cl)cc1)=NC(CC(=O)OC(C)(C)C)c1nnc(C)n1-2` (stereo not drawn) [JQ-1], the “Rescue of CS-JQ1-mediated BRD4 degradation by co-treatment” value at BRD4 is reported as “reduced CS-JQ1 degradation efficiency”. Besides, the IC50 in the assay on MDA was 6490 nM; in the assay with MDA-BR, > 10000 nM; in the assay with BT474 it was > 10000 nM; in the assay with SJGBM2, 1580 nM; in the assay with DIPG XIII [1], > 10000 nM; in the assay on DIPG VI, > 10000 nM. In addition, the IC50 in the assay on DIPG IV was 1520 nM; with DIPG 50, > 10000 nM; in the assay with PHC (mice) it was 900 nM; in the assay on PKC (mice), 786 nM; in the assay with XFM (mice), > 10000 nM; in the assay with MES83 [2], 8120 nM. Also, the IC50 in the assay on MES236 was 3680 nM; in the assay with MGG29, > 10000 nM; in the assay with PN84, 604 nM; in the assay with U87, 6950 nM; in the assay on MGG23, > 10000 nM; with M005 (mice) it was 751 nM. The IC50 was > 10000 nM with DIPG XIII [3] and 6380 nM in the assay on MES83 [4].

Source of the values: patent US20250034202A1 (The General Hospital Corporation, priority 2021, published 2025).
